# Data taken from US20100029683A1, “Methods for regulating cell mitosis by inhibiting serine/threonine phosphateses” (priority 2008, published 2010).
# What was measured:
# [1] = test system: U373 cells; assay: Western blots of pAkt-1, p53 and MDM2 in U373 cells after 24 hours; type: cell-based, human; details: U373, 2 nM
# Experimental: (§1) 5×10^6 U87MG cells were inoculated s.c. into each flank of 20 SCID mice. When the xenografts were 0.5±0.1 cm (day 0), 5 animals each received i.p. vehicle alone days 1-12 (50% DMSO/H2O); compound 102 alone at 1.5 mg/kg days 1-3,5-7, & 9-11; TMZ alone at 80 mg/kg days 4, 8, 12; or both drugs at the same doses and schedules. If xenografts reached 1800 mm^3, animals were sacrificed. […] B, Survival curve combining the data from the study shown in FIG. 12A, with a second identical study involving a total of 10 animals with two xenografts each. Disease-free survival was defined as no recurrence of either xenografts. […] As in 12A, except that xenografts of SH-SY5Y cells were implanted in one flank only and animals were treated with one additional cycle of drugs, i.e., compound 102 on days 13-15, TMZ, on day 16, and compound 102 plus TMZ on the same schedules. […] E, Western blots of U87 cells in culture 24 hours after exposure to compound 102 at 2.5 uM, TMZ at 25 uM or DOX at 2 uM, and compound 102 plus TMZ or DOX. F, Western blots of U373 cells 24 hours after exposure to compound 102 at 2.5 uM, doxorubicin at 2 uM, and both drugs. G, Western blots of U373 cells 24 hours after exposure to TMZ at 25 uM, okadaic acid at 2 nM, and both drugs.
# [2] = test system: U373; assay: Inhibition of U373 glioblastoma cells after 7 days in culture, alone and in combination; type: cell-based, human; details: Compound 100 2.5 μM, cisplatin 0.1 μM, doxorubicin 0.01 μM, taxol 0.3 nM, each alone
# Experimental: Cells were exposed to vehicle alone (control); Compound 100 at 2.5 uM; cisplatin at 0.1 uM; doxorubicin at 0.01 uM; or taxol at 0.3 nM alone or to the combination of Compound 100 plus each of the standard agents at the same concentrations. […] The expected percent inhibition at 7 days is the product of the inhibition by each agent alone.
# Cells were exposed to vehicle alone (control); compound 100 at 2.5 μM, cisplatin at 0.1 μM; doxorubicin at 0.01 μM; or taxol at 0.3 nM alone or to the combination of compound 100 plus each of the standard agents at the same concentrations. […] The expected percent inhibition from a combination of drugs is calculated by multiplying the actual percent inhibition by each drug alone and comparing that product to the actual percent inhibition caused by the combination of the two drugs (Valeriote, 1975). The expected percent inhibition at 7 days is the product of the inhibition by each agent alone.
# [3] = Solubility character of lead compounds; type: physicochemical
# [4] = test system: SH-SY5Y xenografts; assay: SH-SY5Y neuroblastoma s.c. xenografts in SCID mice, compound 102 with TMZ; type: in vivo; details: as U87MG study plus one additional cycle of drugs; followed 7 weeks
# Experimental: 5×10^6 U87MG cells were inoculated s.c. into each flank of 20 SCID mice. When the xenografts were 0.5±0.1 cm (day 0), 5 animals each received i.p. vehicle alone days 1-12 (50% DMSO/H2O); compound 102 alone at 1.5 mg/kg days 1-3,5-7, & 9-11; TMZ alone at 80 mg/kg days 4, 8, 12; or both drugs at the same doses and schedules. If xenografts reached 1800 mm^3, animals were sacrificed. […] B, Survival curve combining the data from the study shown in FIG. 12A, with a second identical study involving a total of 10 animals with two xenografts each. Disease-free survival was defined as no recurrence of either xenografts. […] As in 12A, except that xenografts of SH-SY5Y cells were implanted in one flank only and animals were treated with one additional cycle of drugs, i.e., compound 102 on days 13-15, TMZ, on day 16, and compound 102 plus TMZ on the same schedules. […] E, Western blots of U87 cells in culture 24 hours after exposure to compound 102 at 2.5 uM, TMZ at 25 uM or DOX at 2 uM, and compound 102 plus TMZ or DOX. F, Western blots of U373 cells 24 hours after exposure to compound 102 at 2.5 uM, doxorubicin at 2 uM, and both drugs. G, Western blots of U373 cells 24 hours after exposure to TMZ at 25 uM, okadaic acid at 2 nM, and both drugs. […]
# [5] = target: PP1 (Homo sapiens, UniProt P62136); assay: Inhibition of purified PP1 (Ser/Thr Phosphatase Assay Kit 1); type: biochemical
# Source text: (§2) Inhibition of PP2A and PP1 activity by compound 102 on purified PP1 and PP2A (mean and s.d.; n=3) (Ser/Thr Phosphatase Assay Kit 1, Millipore, Billerica, Mass.)
# [6] = test system: NB xenografts; assay: Histologic examination of xenografts 24 hours after a single i.p. injection; type: in vivo, SCID mice; details: 24 hours after single i.p. injection
# [7] = test system: U87 cells; assay: U87 cell growth in vitro, viable cell count; type: cell-based, human; details: U87 cells (FIG. 6), read-out: IC50, inhibition of GBM cell growth
# Experimental: FIG. 6: Effect of compound 102 on U87 cells in vitro at 1 uM; 2 uM; 5 uM; and 10 uM.
# Viable cells were counted (mean and s.d.; n=3; Coulter particle counter).
# [8] = target: PP2A (Homo sapiens, UniProt P67775); assay: Inhibition of purified PP2A (Ser/Thr Phosphatase Assay Kit 1); type: biochemical
# Source text: as §2
# [9] = test system: U373 cells; assay: Cell cycle distribution of U373 cells by FACS after 48 hours; type: cell-based, human; details: U373, 48 hours
# Experimental: (§3) Cells in unsynchronized logarithmic growth were exposed to vehicle or drug and adherent cells and cells in the media were collected. Harvested cells were fixed with 70% cold ethanol for 20 min at −20 degrees, washed with PBS, and stained with 10 ug/ml of PI and 1 ug/ml RNAse in TBS for 30 minutes and analyzed by FACS. A, Flow cytometry profiles of U87 cells after exposures to DMSO only, compound 102 only, 5 uM; TMZ only, 25 uM; compound 102 with TMZ combination, doxorubicin only, 2.0 uM and compound 102 with doxorubicin combination. B, Flow cytometry profiles of U373 cells.
# (§4) We analyzed cell cycle patterns of U87MG and U373 cells 48 hours after exposure to TMZ or DOX alone and in combination with compound 102.
# [10] = test system: U87MG; assay: Western blots of pAkt, p53 and MDM2 in U87MG cells after 24 hours; type: cell-based, human; details: compound 102 2.5 uM, TMZ 25 uM, DOX 2 uM
# Experimental: as §1
# The effects of compound 102, TMZ, doxorubicin (DOX), a widely used anti-cancer drug that disrupts DNA replication, compound 102 plus TMZ, and compound 102 plus DOX on the amount of pAkt, p53 and MDM2 in U87MG, a cell line with wild-type p53, and in U373, a cell line with mutant p53 (Short et al, 2007) were assessed by Western blots.
# [11] = test system: DAOY medulloblastoma cells; assay: DAOY medulloblastoma s.c. xenografts in SCID mice; type: in vivo; details: treatment from day 6, measured to day 23
# Experimental: DAOY medulloblastoma cells were implanted subcutaneously into the flanks of SCID mice. On day 6, mice were divided into 3 groups, one group receiving Compound 100, one group receiving Compound 102, and one group receiving vehicle alone. The subcutaneous tumor masses were measured on day 6, day 13, day 18, and on day 23 when all animals were sacrificed. […] In this model DAOY cells, when untreated, reached their maximum growth about 2 weeks after implantation with slow regression thereafterwards.
# [12] = test system: PP2A; assay: PP2A activity in U87 s.c. xenografts and normal brain of SCID mice after i.p. injection; type: in vivo; details: single dose 1.5 mg/kg i.p.
# Experimental: PP2A activity in U87 s.c. xenografts (blue) and in normal brain tissue (yellow) of SCID mice at different times after i.p. injection of 1.5 mg/kg compound 102 (one mouse per point; each lysate was measured in triplicate: mean and s.d.)
# [13] = test system: U87MG cells; assay: Cellular and molecular changes in U87MG cells (immunofluorescence, Western blots); type: cell-based, human; details: 2.5 uM
# Experimental: FIG. 11A-G: Cellular and molecular changes in U87 cells induced by compound 102 at 2.5 uM after 24 hour exposure (A-D, F, G) and after 3 hours ([…]).
# A, Nuclear changes in U87 cells in unsynchronized logarithmic growth (upper panel, green immunofluorescence [IFS] GFP labeled-actin α and lower panel, blue DAPI staining). Numerous irregular nuclei with clumped chromatin in compound 102 treated cells are indicated by arrows. B, Disordered microtubules (green IFS tubulin-α and red IFS pPlk-1-Tre 210) and irregular clumped chromatin (blue DAPI) C, Western blots of U87 lysates: pAkt-1, total Akt-1, and β-actin. D, Western blots of U87 lysates: TCTP, pPlk (Tre-210), total Plk, and β-actin. E, IFS of TCTP in U87 cells, F, Western blots p53 (ser-15), pMDM2 (ser-166), and β-actin and G, IFS of p53 (ser-15).
# TCTP is an abundant, highly conserved, multifunctional protein that binds to and stabilizes microtubules before and after mitosis and also exerts potent anti-apoptotic activity (Bommer and Thiele, 2004; Yarm, 2002; Susini et al, 2008) (FIG. 11E).
# [14] = test system: U87 cells; assay: Immunofluorescence staining of p53; type: cell-based, human; details: 24 hour exposure, compound 102 2.5 uM, TMZ 25 uM
# [15] = test system: U87MG cells; assay: Cell cycle distribution of U87MG cells by FACS after 48 hours; type: cell-based, human
# Experimental: as §3, §4
# [16] = test system: U87MG xenografts; assay: U87MG s.c. xenografts in SCID mice, compound 102 with TMZ; type: in vivo
# Experimental: as §1
# To determine the impact of altering DNA-damage defense mechanisms by inhibiting PP2A on the efficacy of cytotoxic chemotherapy, the effects of compound 102 combined with TMZ, a non-specific DNA-methylating drug, routinely used for the palliative treatment of GBM patients (Prados et al, 2008), were studied. SCID mice bearing s.c. xenografts of either the GBM line U87MG or the neuroblastoma line SH-SY5Y were treated with vehicle alone, compound 102 alone, TMZ alone, or both drugs at the same doses and schedules as when given alone.
# Chain of PP1 (P62136 whole entry): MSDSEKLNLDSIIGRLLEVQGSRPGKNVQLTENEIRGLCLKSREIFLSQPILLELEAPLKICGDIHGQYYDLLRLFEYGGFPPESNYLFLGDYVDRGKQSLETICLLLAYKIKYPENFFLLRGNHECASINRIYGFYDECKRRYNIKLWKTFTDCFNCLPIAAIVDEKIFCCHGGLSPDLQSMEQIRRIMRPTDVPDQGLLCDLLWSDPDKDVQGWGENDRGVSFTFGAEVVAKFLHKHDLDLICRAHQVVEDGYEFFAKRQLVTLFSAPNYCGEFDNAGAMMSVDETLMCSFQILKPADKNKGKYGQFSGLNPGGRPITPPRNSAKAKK
# Chain of PP2A (Homo sapiens, UniProt P67775) (P67775 whole entry): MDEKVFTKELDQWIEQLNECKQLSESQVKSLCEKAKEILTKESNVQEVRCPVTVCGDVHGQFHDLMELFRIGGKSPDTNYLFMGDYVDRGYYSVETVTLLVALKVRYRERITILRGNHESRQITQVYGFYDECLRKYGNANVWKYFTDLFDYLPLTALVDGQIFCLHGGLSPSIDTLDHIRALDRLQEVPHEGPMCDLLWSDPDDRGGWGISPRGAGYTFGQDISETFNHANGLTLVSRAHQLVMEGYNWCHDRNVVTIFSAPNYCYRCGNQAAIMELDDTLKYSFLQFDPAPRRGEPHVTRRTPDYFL
smiles,measurement,setting,value
"C=C1[C@@H](O)[C@@H]2O[C@]3(CC[C@H](/C=C/[C@@H](C)[C@@H]4CC(C)=C[C@@]5(O[C@H](C[C@@](C)(O)C(=O)O)CC[C@H]5O)O4)O3)CC[C@H]2O[C@@H]1[C@@H](O)C[C@H](C)[C@H]1O[C@@]2(CCCCO2)CC[C@H]1C [Okadaic acid, okadaic acid]",effects on pAkt-1 and mutant p53,[1],mimicked the effects of compound 102 on pAkt-1 and on mutant p53
N.N.[Cl][Pt][Cl] [cisplatin],"inhibition at 7 days, agent alone",[2],93.5%
CC(C)(C)OC(=O)N1CCN(C(=O)C2C(C(=O)O)[C@H]3CC[C@@H]2O3)CC1 (stereo partly shown) [Compound 102],solubility character,[3],lipid soluble
same,growth of NB (SH-SY5Y) xenografts,[4],completely suppressed growth for 2 weeks
same,IC50,[5],~80 µM
same,cells with decreased cell size / small pyknotic nuclei,[6],~50%
same,IC50,[7],~4 µM
same,IC50,[8],~0.4 µM
same,cell cycle profile,[9],no effect on this profile
same,MDM2 on Western blot,[10],increased both pAkt-1 and MDM2
same,p53 on Western blot,[10],eliminated p53
same,pAkt-1 on Western blot,[10],increased both pAkt-1 and MDM2
same,DAOY s.c. tumor mass,[11],marked regression of the tumor by day 23
same,PP2A activity in normal brain tissue,[12],inhibits PP2A activity
same,PP2A activity in s.c. xenografts of U87 MG,[12],inhibits PP2A activity
same,p53 abundance,[13],decreased the abundance of p53
same,phosphorylated MDM2,[13],increased phosphorylated MDM2
same,TCTP abundance,[13]; 24 hour exposure,marked decrease in translationally controlled tumor protein
same,microtubule and mitotic morphology (mitotic catastrophe),[13]; 24 hour exposure,appearance of disordered microtubules and abnormal mitotic figures
same,phosphorylated Akt-1,[13]; 24 hour exposure,increased phosphorylated Akt-1
same,phosphorylated Plk-1,[13]; 24 hour exposure,increased phosphorylated Plk-1
same,intracellular levels of p53 by immunofluorescence,[14],reduction of intracellular levels of p53
same,G1 phase cells,[15],decreased G1
same,G2/M phase cells,[15],prominently increased G2/M
same,S phase cells,[15],modestly increased S
same,time of sacrifice (xenografts reached 1800 mm^3),"[16]; U87 xenografts, for the combination only the 3 mice with recurrence",4-5 week
same,growth of GBM (U87MG) xenografts,"[16]; compound 102 1.5 mg/kg i.p. days 1-3, 5-7, 9-11, TMZ 80 mg/kg days 4, 8, 12",minimally delayed growth
same,GBM xenografts: animals with complete regression without recurrence,"[16]; compound 102 combined with temozolomide, greater than 28 weeks",50%
CC(=O)O[C@H]1C(=O)[C@@]2(C)[C@H]([C@H](OC(=O)c3ccccc3)[C@]3(O)C[C@H](OC(=O)[C@H](O)[C@@H](NC(=O)c4ccccc4)c4ccccc4)C(C)=C1C3(C)C)[C@]1(OC(C)=O)CO[C@@H]1C[C@@H]2O [Taxol],"inhibition at 7 days, agent alone",[2],114%
"Cn1nnc2c(C(N)=O)ncn2c1=O [TMZ, temozolomide, reference compound]",cells with cytoplasmic swelling and vacuolization,[6],~50%
"COc1cccc2c1C(=O)c1c(O)c3c(c(O)c1C2=O)C[C@@](O)(C(=O)CO)C[C@@H]3O[C@H]1C[C@H](N)[C@H](O)[C@H](C)O1 [DOX, doxorubicin]",G1 phase cells,[9],reduced G1 and G2/M
same,G2/M phase cells,[9],reduced G1 and G2/M
same,S phase cells,[9],greatly increased S
same,MDM2 on Western blot,[10],little effect on MDM2
same,p53 on Western blot,[10],increased p53
same,pAkt-1 on Western blot,[10],decreased pAkt-1
same,"inhibition at 7 days, agent alone",[2],75.7%
